# Measurements published in patent US9695152B2, “3,4-dihydro-2H-isoquinoline-1-one and 2,3-dihydro-isoindol-1-one compounds” (Hoffmann-La Roche Inc., priority 2013, dated 2017).
# Columns and labels:
# CYP11B2 [1] = target: T1, CYP11B2 (Homo sapiens (Human), UniProt P19099); assay: G-402 cellular enzyme assay, human CYP11B2 (aldosterone release, HTRF); type: cell-based; conditions: G-402 cells expressing human CYP11B2, 1 μM Deoxycorticosterone
# Excerpt: (§1) Herein we identified the use of the G-402 cell line as a host cell to ectopically express (transiently or stably) enzymes of the CYP11 family. Specifically we developed stable G-402 cells expressing ectopically human CYP11B1, human CYP11B2, human CYP11A1, cynmolgus CYP11B1 or cynomolgus CYP11B2 enzyme activity. Importantly the identified cell line G-402 expresses co-factors (adrenodoxin and adrenodoxin reductase) important for the activity of the CYP11 family and no relevant enzyme activity of the CYP11 family (in comparison to H295R cells) was detected in these cells. Therefore the G-402 cell line is uniquely suited as a host cell for the ectopic expression of enzymes from the CYP11 family.
# (§2) G-402 cells can be obtained from ATCC (CRL-1440) and were originally derived from a renal leiomyoblastoma.
# (§3) The expression plasmids contains the ORF for either human/cyno CYP11B1 or CYP11B2 under the control of a suitable promoter (CMV-promoter) and a suitable resistance marker (neomycin). Using standard techniques the expression plasmid is transfected into G-402 cells and these cells are then selected for expressing the given resistance markers. Individual cell-clones are then selected and assessed for displaying the desired enzymatic activity using 11-Deoxycorticosterone (Cyp11B2) or 11-Deoxycortisol (Cyp11B1) as a substrate.
# (§4) G-402 cells expressing CYP11 constructs were established as described above and maintained in McCoy's 5a Medium Modified, ATCC Catalog No. 30-2007 containing 10% FCS and 400 μg/ml G418 (Geneticin) at 37° C. under an atmosphere of 5% CO2/95% air. Cellular enzyme assays were performed in DMEM/F12 medium containing 2.5% charcoal treated FCS and appropriate concentration of substrate (0.3-10 uM 11-Deoxycorticosterone, 11-Deoxycortisol or Corticosterone). For assaying enzymatic activity, cells were plated onto 96 well plates and incubated for 16 h. An aliquot of the supernatant is then transferred and analyzed for the concentration of the expected product (Aldosterone for CYP11B2; Cortisol for CYP11B1). The concentrations of these steroids can be determined using HTRF assays from CisBio analyzing either Aldosterone or Cortisol.
# (§5) Inhibition of the release of produced steroids can be used as a measure of the respective enzyme inhibition by test compounds added during the cellular enzyme assay. The dose dependent inhibition of enzymatic activity by a compound is calculated by means of plotting added inhibitor concentrations (x-axes) vs. measured steroid/product level (y-axes). The inhibition is then calculated by fitting the following 4-parameter sigmoidal function (Morgan-Mercer-Flodin (MMF) model) to the raw data points using the least squares method:
# (§6) [formula] wherein, A is the maximum y value, B is the EC50 factor determined using XLFit, C is the minimum y value and D is the slope value.
# (§7) EC50 values for compounds claimed herein were tested with the G402-based assay system described. Cyp11B2 enzyme activity was tested in presence of 1 μM Deoxycorticosterone and variable amounts of inhibitors; Cyp11B1 enzyme activity was tested in presence of 1 μM Deoxycortisol and variable amounts of inhibitors.
# human CYP11B1 = human CYP11B1 (Homo sapiens (Human), UniProt P15538); assay: G-402 cellular enzyme assay, human CYP11B1 (cortisol release, HTRF); type: cell-based; conditions: G-402 cells expressing human CYP11B1, 1 μM Deoxycortisol
# Excerpt: as §1, §2, §3, §4, §5, §6, §7
# [2] = rat, cited from earlier work; for plasma aldosterone: 4 weeks (FAD286), 4 and 8 weeks (spironolactone) of treatment
# [3] = rats with experimental heart failure; cited from earlier work
# CYP11B2 [4] = target: T1, CYP11B2; conditions: patients with primary aldosteronism, cited from earlier work
# human CYP11B1, sequence (P15538 25-503): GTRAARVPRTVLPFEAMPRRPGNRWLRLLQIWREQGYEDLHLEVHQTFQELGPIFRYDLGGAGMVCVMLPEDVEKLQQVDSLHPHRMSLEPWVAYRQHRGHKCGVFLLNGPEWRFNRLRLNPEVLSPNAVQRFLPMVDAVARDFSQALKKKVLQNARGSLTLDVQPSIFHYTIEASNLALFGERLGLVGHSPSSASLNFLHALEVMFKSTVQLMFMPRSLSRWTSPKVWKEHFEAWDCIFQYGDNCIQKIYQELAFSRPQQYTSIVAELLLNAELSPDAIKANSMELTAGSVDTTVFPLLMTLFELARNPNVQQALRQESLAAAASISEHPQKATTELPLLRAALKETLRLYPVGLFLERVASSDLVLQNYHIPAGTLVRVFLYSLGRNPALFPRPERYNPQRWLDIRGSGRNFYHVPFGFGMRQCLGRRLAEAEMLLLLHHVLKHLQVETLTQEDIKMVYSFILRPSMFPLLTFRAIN
# T1 sequence (P19099 25-503): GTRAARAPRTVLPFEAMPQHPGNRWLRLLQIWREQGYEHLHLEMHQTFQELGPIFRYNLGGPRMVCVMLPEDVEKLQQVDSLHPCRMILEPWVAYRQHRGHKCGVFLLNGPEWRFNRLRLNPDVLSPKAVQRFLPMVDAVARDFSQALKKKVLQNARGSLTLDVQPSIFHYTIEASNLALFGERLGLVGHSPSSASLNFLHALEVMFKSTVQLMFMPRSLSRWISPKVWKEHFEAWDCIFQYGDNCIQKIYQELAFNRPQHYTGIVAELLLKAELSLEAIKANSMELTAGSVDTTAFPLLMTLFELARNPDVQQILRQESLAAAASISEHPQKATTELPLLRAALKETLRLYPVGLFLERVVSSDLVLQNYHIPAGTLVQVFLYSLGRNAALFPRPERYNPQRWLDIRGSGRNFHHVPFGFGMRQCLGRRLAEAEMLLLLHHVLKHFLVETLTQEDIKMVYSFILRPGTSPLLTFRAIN
SMILES,EC50 (CYP11B2 [1]) [nM],EC50 (human CYP11B1) [nM],other results
"Cc1noc(C)c1C(=O)N1CC(Nc2cncc(N3CCc4cc(Cl)ccc4C3=O)c2)C1 [Example 20, 6-Chloro-2-[5-[[1-(3,5-dimethylisoxazole-4-carbonyl)azetidin-3-yl]amino]-3-pyridyl]-3,4-dihydroisoquinolin-1-one]",55,3880,
"Cn1ccnc1C(=O)N1CC(Nc2cncc(N3CCc4cc(Cl)ccc4C3=O)c2)C1 [Example 22, 6-Chloro-2-[5-[[1-(1-methylimidazole-2-carbonyl)azetidin-3-yl]amino]-3-pyridyl]-3,4-dihydroisoquinolin-1-one]",23,2090,
"CC1(C)c2cc(C#N)ccc2C(=O)N1c1cncc(NC2CN(S(=O)(=O)C3CC3)C2)c1 [Example 31, 2-[5-[(1-Cyclopropylsulfonylazetidin-3-yl)amino]-3-pyridyl]-3,3-dimethyl-1-oxo-isoindoline-5-carbonitrile]",12,7000,
"CC1(C)c2cc(C#N)ccc2C(=O)N1c1cncc(NC2CCN(S(=O)(=O)C3CC3)CC2)c1 [Example 35, 2-[5-[(1-Cyclopropylsulfonyl-4-piperidyl)amino]-3-pyridyl]-3,3-dimethyl-1-oxo-isoindoline-5-carbonitrile]",24,13300,
"CC1(C)c2cc(C#N)ccc2C(=O)N1c1cncc(NC2CCN(C(=O)c3ncccc3Cl)CC2)c1 [Example 36, 2-[5-[[1-(3-Chloropyridine-2-carbonyl)-4-piperidyl]amino]-3-pyridyl]-3,3-dimethyl-1-oxo-isoindoline-5-carbonitrile]",22,1400,
"Cc1ccncc1C(=O)N1CCC(Nc2cncc(N3C(=O)c4ccc(C#N)cc4C3(C)C)c2)CC1 [Example 37, 3,3-Dimethyl-2[5-[[1-(4-methylpyridine-3-carbonyl)-4-piperidyl]amino]-3-pyridyl]-1-oxo-isoindoline-5-carbonitrile]",70,10500,
"Cn1ccnc1C(=O)N1CCC(Nc2cncc(N3C(=O)c4ccc(C#N)cc4C3(C)C)c2)CC1 [Example 41, 3,3-Dimethyl-2-[5-[[1-(1-methylimidazole-2-carbonyl)-4-piperidyl]amino]-3-pyridyl]-1-oxo-isoindoline-5-carbonitrile]",17,190,
N#Cc1ccc([C@H]2CCCc3cncn32)cc1 [FAD286],,,plasma aldosterone [2]: reduced; angiotensin II and salt-stimulated PAI-1 mRNA expression in the aorta and the heart [2]: not; blood pressure and cardiovascular function and structure [3]: improved
N#Cc1ccc([C@H]2CCc3cncn32)c(F)c1 [LCI699],,,circulating aldosterone levels (CYP11B2 [4]; oral): significantly lower; blood pressure (CYP11B2 [4]): mildly decreased; hypokalemia (CYP11B2 [4]): corrected
CC(=O)S[C@@H]1CC2=CC(=O)CC[C@]2(C)[C@H]2CC[C@@]3(C)[C@@H](CC[C@@]34CCC(=O)O4)[C@H]12 [spironolactone],,,plasma aldosterone [2]: increased; angiotensin II and salt-stimulated PAI-1 mRNA expression in the aorta and the heart [2]: enhanced

# Continued, in another order:
EC50 (CYP11B2 [1]) [nM],EC50 (human CYP11B1) [nM],SMILES,other results
86,10900,"Cc1ccncc1C(=O)N1CC2(CC(Nc3cncc(N4C(=O)c5ccc(Cl)cc5C4(C)C)c3)C2)C1 [Example 19, 5-Chloro-3,3-dimethyl-2-[5-[[2-(4-methylpyridine-3-carbonyl)-2-azaspiro[3.3]heptan-6-yl]amino]pyridin-3-yl]isoindol-1-one]",
7,16900,"Cn1cc(C(=O)N2CC(Nc3cncc(N4CCc5cc(Cl)ccc5C4=O)c3)C2)cn1 [Example 21, 6-Chloro-2-[5-[[1-(1-methylpyrazole-4-carbonyl)azetidin-3-yl]amino]-3-pyridyl]-3,4-dihydroisoquinolin-1-one]",
30,5950,"Cc1noc(C)c1C(=O)N1CC(Nc2cncc(N3C(=O)c4ccc(Cl)cc4C3(C)C)c2)C1 [Example 23, 5-Chloro-2-[5-[[1-(3,5-dimethylisoxazole-4-carbonyl)azetidin-3-yl]amino]-3-pyridyl]-3,3-dimethyl-isoindolin-1-one]",
1,6020,"Cn1cc(C(=O)N2CC(Nc3cncc(N4C(=O)c5ccc(Cl)cc5C4(C)C)c3)C2)cn1 [Example 24, 5-Chloro-3,3-dimethyl-2-[5-[[1-(1-methylpyrazole-4-carbonyl)azetidin-3-yl]amino]-3-pyridyl]isoindolin-1-one]",
27,6140,"Cc1ccncc1C(=O)N1CC(Nc2cncc(N3C(=O)c4ccc(C#N)cc4C3(C)C)c2)C1 [Example 32, 3,3-Dimethyl-2-[5-[[1-(4-methylpyridine-3-carbonyl)azetidin-3-yl]amino]-3-pyridyl]-1-oxo-isoindoline-5-carbonitrile]",
31,29500,Cn1cc(C(=O)N2CC(Nc3cncc(N4C(=O)c5ccc(C#N)cc5C4(C)C)c3)C2)cn1 [Example 33],
5,586,"Cn1ccnc1C(=O)N1CC(Nc2cncc(N3C(=O)c4ccc(C#N)cc4C3(C)C)c2)C1 [Example 34, 3,3-Dimethyl-2[5-[[1-(1-methylimidazole-2-carbonyl)azetidin-3-yl]amino]-3-pyridyl]-1-oxo-isoindoline-5-carbonitrile]",
31,1200,"CC1(C)c2cc(C#N)ccc2C(=O)N1c1cncc(NC2CN(C(=O)c3ncccc3Cl)C2)c1 [Example 38, 2-[5-[[1-(3-Chloropyridine-2-carbonyl)azetidin-3-yl]amino]-3-pyridyl]-3,3-dimethyl-1-oxo-isoindoline-5-carbonitrile]",
25,13900,"Cn1cncc1C(=O)N1CC(Nc2cncc(N3C(=O)c4ccc(C#N)cc4C3(C)C)c2)C1 [Example 39, 3,3-Dimethyl-2-[5-[[1-(3-methylimidazole-4-carbonyl)azetidin-3-yl]amino]-3-pyridyl]-1-oxo-isoindoline-5-carbonitrile]",
52,9570,"Cn1cc(C(=O)N2CCC(Nc3cncc(N4C(=O)c5ccc(C#N)cc5C4(C)C)c3)CC2)cn1 [Example 40, 3,3-Dimethyl-2-[5-[[1-(1-methylpyrazole-4-carbonyl)-4-piperidyl]amino]-3-pyridyl]-1-oxo-isoindoline-5-carbonitrile]",
56,10600,"Cn1cncc1C(=O)N1CCC(Nc2cncc(N3C(=O)c4ccc(C#N)cc4C3(C)C)c2)CC1 [Example 42, 3,3-Dimethyl-2-[5-[[1-(3-methylimidazole-4-carbonyl)-4-piperidyl]amino]-3-pyridyl]-1-oxo-isoindoline-5-carbonitrile]",
